Earlier results, collected in patent publication US20050182026A1, “Use of phospholipids in peritoneal dialysis” (priority 2002, published 2005).

Legend:
[1] = system: respiratory distress syndrome; conditions: various physical forms, used for two decades in newborns

solubility in water: highly insoluble in water | critical micelle concentration (in water): 5×10^−10 Molar
SMILES: CCCCCCCCCCCCCCCC(=O)OC[C@H](COP(=O)([O-])OCC[N+](C)(C)C)OC(=O)CCCCCCCCCCCCCCC [DPPC, dipalmitoylphosphatidylcholine]
safety in clinical use [1]: complete safety
